Reference: paper PMC4455115, “A new arylbenzofuran derivative functions as an anti-tumour agent by inducing DNA damage and inhibiting PARP activity” (Scientific Reports, 2015)

Molecular target: T1, PARP-1 (Homo sapiens, UniProt P09874)
T1 construct: gene PARP1
Assay: HT Universal Colorimetric PARP Assay Kit (Trevigen), in vitro PARP-1 activity
Format: biochemical

T1 sequence (P09874 2-1014): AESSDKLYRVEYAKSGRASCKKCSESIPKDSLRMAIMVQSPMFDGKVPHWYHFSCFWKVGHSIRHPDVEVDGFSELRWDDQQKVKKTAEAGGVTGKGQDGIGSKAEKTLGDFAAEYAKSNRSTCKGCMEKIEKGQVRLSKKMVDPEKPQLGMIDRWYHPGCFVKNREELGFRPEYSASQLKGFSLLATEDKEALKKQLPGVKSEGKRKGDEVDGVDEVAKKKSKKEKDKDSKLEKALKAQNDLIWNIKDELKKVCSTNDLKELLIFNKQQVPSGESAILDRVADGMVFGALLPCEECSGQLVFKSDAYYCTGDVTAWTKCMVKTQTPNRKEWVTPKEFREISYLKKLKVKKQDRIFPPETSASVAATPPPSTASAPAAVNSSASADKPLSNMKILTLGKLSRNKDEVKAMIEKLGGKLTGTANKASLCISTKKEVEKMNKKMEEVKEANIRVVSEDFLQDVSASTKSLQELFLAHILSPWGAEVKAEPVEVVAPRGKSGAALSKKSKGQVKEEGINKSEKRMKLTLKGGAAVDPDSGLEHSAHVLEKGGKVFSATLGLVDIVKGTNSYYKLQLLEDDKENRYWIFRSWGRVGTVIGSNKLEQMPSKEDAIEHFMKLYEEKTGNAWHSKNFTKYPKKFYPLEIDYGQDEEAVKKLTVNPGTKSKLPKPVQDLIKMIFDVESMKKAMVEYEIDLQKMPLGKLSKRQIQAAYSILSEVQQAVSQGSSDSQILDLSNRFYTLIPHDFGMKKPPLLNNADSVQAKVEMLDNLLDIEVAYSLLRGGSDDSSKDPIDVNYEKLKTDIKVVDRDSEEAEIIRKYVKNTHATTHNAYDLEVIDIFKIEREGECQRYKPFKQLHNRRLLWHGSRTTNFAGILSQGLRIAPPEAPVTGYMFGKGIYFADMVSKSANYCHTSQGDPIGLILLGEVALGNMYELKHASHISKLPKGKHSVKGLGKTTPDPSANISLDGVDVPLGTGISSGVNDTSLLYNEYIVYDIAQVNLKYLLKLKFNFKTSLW

- IC50: 154 µM
SMILES: COc1ccc(-c2cc3cc(OC)cc(O)c3o2)cc1 [HDAB]
